Experimental data: patent publication US20250122191A1, “COMPOUNDS AS BCL-2 INHIBITORS” (Fochon Biosciences, Ltd, priority 2021, published 2025)

What follows are compounds tested on Toledo cells (assay: Cell proliferation assay (MTS), Toledo cells). Conditions: Homo sapiens, 72 h.
Type: cell-based
Protocol: MTS testing kit was purchased from Promega (Madison, WI, USA). The RPMI-1640, Fetal bovine serum and Penicillin-Streptomycin were purchased from BI (Biological Industries, Beit Haemek, Israel). Dimethyl sulfoxide (DMSO) was purchased from Sigma (St. Louis., MO, USA). Toledo (ATCC catalog #: CRL-2631) cells were cultured in RPMI-1640 supplemented with Penicillin-Streptomycin and 10% FBS.
To investigate whether a compound is able to inhibit the activity of BCL-2 in cells, a mechanism-based assay using Toledo lines was developed. In this assay, the inhibition of BCL-2 was reflected by the inhibition of cell proliferation of Toledo cells. Cells were plated into 96-well plates at the optimized cell density of 30000 cells/well. Plates were incubated at 37° C., with 5% CO2 for 4 h. Compounds were serially diluted and added to the plates with the final concentrations of 10000, 3333.3, 1111.1, 370.4, 123.5, 41.2, 13.7, 4.6 and 1.5 nM. Plates were incubated at 37° C., with 5% CO2 for 72 h. 20 μl MTS was added into each well and the plates were incubated at 37° C., with 5% CO2 for exactly 2 h. The absorbance was measured by a microplate reader at 490 nm. IC50 was calculated using GraphPad Prism 5.0 software.
With `COc1cc(CN2CCC(N3CC4(CCN(c5ccc(C(=O)NS(=O)(=O)c6cnc(NC[C@H]7CC[C@](C)(O)CC7)c([N+](=O)[O-])c6)c(Oc6cc7c(F)c[nH]c7nc6OC)c5)CC4)C3)C(c3ccccc3C(C)C)C2)ccc1C1CC1` (some centres unmarked) [Example 24, 4-(2-(1-(4-cyclopropyl-3-methoxybenzyl)-3-(2-isopropylphenyl)piperidin-4-yl)-2,7-diazaspiro[3.5]nonan-7-yl)-2-((3-fluoro-6-methoxy-1H-pyrrolo[2,3-b]pyridin-5-yl)oxy)-N-((6-((((1r,4r)-4-hydroxy-4-methylcyclohexyl)methyl)amino)-5-nitropyridin-3-yl)sulfonyl)benzamide] the IC50 was 1 nM.
For `CCOc1nc2[nH]cc(F)c2cc1Oc1cc(N2CCC3(CC2)CC(N2CCN(Cc4ccc(OC)c(F)c4)C[C@H]2c2ccccc2C(C)C)C3)ccc1C(=O)NS(=O)(=O)c1cnc(NC[C@H]2CC[C@](C)(O)CC2)c([N+](=O)[O-])c1` [Example 98, 2-((6-ethoxy-3-fluoro-1H-pyrrolo[2,3-b]pyridin-5-yl)oxy)-4-(2-((R)-4-(3-fluoro-4-methoxybenzyl)-2-(2-isopropylphenyl)piperazin-1-yl)-7-azaspiro[3.5]nonan-7-yl)-N-((6-((((1r,4r)-4-hydroxy-4-methylcyclohexyl)methyl)amino)-5-nitropyridin-3-yl)sulfonyl)benzamide], the IC50 was 1 nM.
With `CCOc1nc2[nH]cc(F)c2cc1Oc1cc(N2CCC3(CC2)CC(N2CCN(C(C)C)C[C@H]2c2ccccc2C(C)C)C3)ccc1C(=O)NS(=O)(=O)c1cnc(NC[C@H]2CC[C@](C)(O)CC2)c([N+](=O)[O-])c1` [Example 100, 2-((6-ethoxy-3-fluoro-1H-pyrrolo[2,3-b]pyridin-5-yl)oxy)-N-((6-((((1r,4r)-4-hydroxy-4-methylcyclohexyl)methyl)amino)-5-nitropyridin-3-yl)sulfonyl)-4-(2-((R)-4-isopropyl-2-(2-isopropylphenyl)piperazin-1-yl)-7-azaspiro[3.5]nonan-7-yl)benzamide] the IC50 was 1 nM.
`CCOc1nc2[nH]cc(F)c2cc1Oc1cc(N2CCC3(CC2)CC(N2CCN(Cc4cc(F)c(OC)c(F)c4)C[C@H]2c2ccccc2C(C)C)C3)ccc1C(=O)NS(=O)(=O)c1cnc(NC[C@H]2CC[C@](C)(O)CC2)c([N+](=O)[O-])c1` [Example 108, 4-(2-((R)-4-(3,5-difluoro-4-methoxybenzyl)-2-(2-isopropylphenyl)piperazin-1-yl)-7-azaspiro[3.5]nonan-7-yl)-2-((6-ethoxy-3-fluoro-1H-pyrrolo[2,3-b]pyridin-5-yl)oxy)-N-((6-((((1r,4r)-4-hydroxy-4-methylcyclohexyl)methyl)amino)-5-nitropyridin-3-yl)sulfonyl)benzamide] showed an IC50 of 1 nM.

Each compound was assayed on RS4;11-BCL-2 G101V cells (assay: Cell proliferation assay (MTS), RS4;11-BCL-2 G101V engineered cells). Conditions: Homo sapiens, 120 h, read-out: RS4, 11 BCL2-G101V IC50.
Type: cell-based
Excerpt: MTS testing kit was purchased from Promega (Madison, WI, USA). The RPMI-1640, Fetal bovine serum and Penicillin-Streptomycin were purchased from BI (Biological Industries, Beit Haemek, Israel). Puromycin was purchased from Beyotime (shanghai, China). Dimethyl sulfoxide (DMSO) was purchased from Sigma (St. Louis., MO, USA). RS4;11-BCL-2 G101V (Cobioer Lot. #: CBD2021063013P4), RS4;11-BCL-2 D103E (Cobioer Lot. #: CBD2021063013P4), RS4;11-BCL-2 D103Y (Cobioer Lot. #: CBD2022012101P4) and RS4;11-BCL-2 F104L (Cobioer Lot. #: CBD2021063014P4) cells were cultured in RPMI1640 supplemented with 1 ug/mL puromycin, 100 U/mL Penicillin-Streptomycin and 10% FBS.
To investigate whether a compound is able to inhibit the activity of BCL-2 mutation in cells, a mechanism-based assay using engineered cell lines stably overexpressing BCL-2 mutation (RS4;11-BCL-2 G101V, RS4;11-BCL-2 D103E, RS4;11-BCL-2 D103Y, and RS4;11-BCL-2 F104L) was developed. In this assay, the inhibition of BCL-2 mutation was reflected by the inhibition of cell proliferation of engineered RS4;11 cells. Cells were plated into 96-well plates at optimized cell density (RS4;11-BCL-2 G101V: 5000 cells/well; RS4;11-BCL-2 D103E: 7500 cells/well; RS4;11-BCL-2 D103Y: 7500 cells/well; RS4;11-BCL-2 F104L: 5000 cells/well). Plates were incubated at 37° C., with 5% CO2 for 4 h (RS4;11-BCL-2 G101V, RS4;11-BCL-2 F104L) and 24 h (RS4;11-BCL-2 D103E, RS4;11-BCL-2 D103Y), respectively. Compounds were serially diluted and added to the plates with the final concentrations of 10000, 3333.3, 1111.1, 370.4, 123.5, 41.2, 13.7, 4.6 and 1.5 nM. Plates were incubated at 37° C., with 5% CO2 for 120 h (RS4; 11-BCL-2 G101V, RS4; 11-BCL-2 F104L) and 72 h (RS4;11-BCL-2 D103E, RS4;11-BCL-2 D103Y), respectively. 20 μl MTS was added into each well and the plates were incubated at 37° C., with 5% CO2 exactly for 2 h. The absorbance was measured by a microplate reader at 490 nm. IC50 values were calculated using GraphPad Prism 8.0 software.
`COc1ccc(CN2CCN(C3CC4(CCN(c5ccc(C(=O)NS(=O)(=O)c6cnc(NC[C@H]7CC[C@](C)(O)CC7)c([N+](=O)[O-])c6)c(Oc6cnc7[nH]cc(F)c7c6)c5)CC4)C3)[C@H](c3ccccc3C(C)C)C2)nc1` [Example 256, 2-((3-fluoro-1H-pyrrolo[2,3-b]pyridin-5-yl)oxy)-N-((6-((((1r,4r)-4-hydroxy-4-methylcyclohexyl)methyl)amino)-5-nitropyridin-3-yl)sulfonyl)-4-(2-((R)-2-(2-isopropylphenyl)-4-((5-methoxypyridin-2-yl)methyl)piperazin-1-yl)-7-azaspiro[3.5]nonan-7-yl)benzamide] was tested, and the IC50 was 1 nM.
For `COc1nc2[nH]cc(F)c2cc1Oc1cc(N2CCC3(CC2)CC(N2CCN(CC4CCOCC4)C[C@H]2c2ccccc2C(C)C)C3)ccc1C(=O)NS(=O)(=O)c1cnc(NC[C@H]2CC[C@](C)(O)CC2)c([N+](=O)[O-])c1` [Example 317, 2-((3-fluoro-6-methoxy-1H-pyrrolo[2,3-b]pyridin-5-yl)oxy)-N-((6-((((1r,4r)-4-hydroxy-4-methylcyclohexyl)methyl)amino)-5-nitropyridin-3-yl)sulfonyl)-4-(2-((R)-2-(2-isopropylphenyl)-4-((tetrahydro-2H-pyran-4-yl)methyl)piperazin-1-yl)-7-azaspiro[3.5]nonan-7-yl)benzamide], the IC50 was 1 nM.
In the case of `COc1nc2[nH]cc(F)c2cc1Oc1cc(N2CCC3(CC2)CC(N2CCN(C4CCOCC4)C[C@H]2c2ccccc2C(C)C)C3)ccc1C(=O)NS(=O)(=O)c1cnc(NC[C@H]2CC[C@](C)(O)CC2)c([N+](=O)[O-])c1` [Example 319, 2-((3-fluoro-6-methoxy-1H-pyrrolo[2,3-b]pyridin-5-yl)oxy)-N-((6-((((1r,4r)-4-hydroxy-4-methylcyclohexyl)methyl)amino)-5-nitropyridin-3-yl)sulfonyl)-4-(2-((R)-2-(2-isopropylphenyl)-4-(tetrahydro-2H-pyran-4-yl)piperazin-1-yl)-7-azaspiro[3.5]nonan-7-yl)benzamide], the IC50 is reported as 1 nM.
In the case of `CC(C)c1ccccc1[C@@H]1CN(C2CCC(O)CC2)CCN1C1CC2(CCN(c3ccc(C(=O)NS(=O)(=O)c4cnc(NC[C@H]5CC[C@](C)(O)CC5)c([N+](=O)[O-])c4)c(Oc4cnc5[nH]cc(F)c5c4)c3)CC2)C1` (stereo partly drawn) [Example 333, 2-((3-fluoro-1H-pyrrolo[2,3-b]pyridin-5-yl)oxy)-N-((6-((((1r,4r)-4-hydroxy-4-methylcyclohexyl)methyl)amino)-5-nitropyridin-3-yl)sulfonyl)-4-(2-((R)-4-(4-hydroxycyclohexyl)-2-(2-isopropylphenyl)piperazin-1-yl)-7-azaspiro [3.5]nonan-7-yl)benzamide], the IC50 is reported as 1 nM.
Work on `CC(C)c1ccccc1[C@@H]1CN(Cc2ccc3c(c2)OC(F)(F)O3)CCN1C1CC2(CCN(c3ccc(C(=O)NS(=O)(=O)c4cnc(NC[C@H]5CC[C@](C)(O)CC5)c([N+](=O)[O-])c4)c(Oc4cnc5[nH]cc(F)c5c4)c3)CC2)C1` [Example 352, 4-(2-((R)-4-((2,2-difluorobenzo[d][1,3]dioxol-5-yl)methyl)-2-(2-isopropylphenyl)piperazin-1-yl)-7-azaspiro[3.5]nonan-7-yl)-2-((3-fluoro-1H-pyrrolo [2,3-b]pyridin-5-yl)oxy)-N-((6-((((1r,4r)-4-hydroxy-4-methylcyclohexyl)methyl)amino)-5-nitropyridin-3-yl)sulfonyl)benzamide] yielded an IC50 of 1 nM.
`COc1ncc(CN2CCN(C3CC4(CCN(c5ccc(C(=O)NS(=O)(=O)c6cnc(NC[C@H]7CC[C@](C)(O)CC7)c([N+](=O)[O-])c6)c(Oc6cc7c(F)c[nH]c7nc6OC)c5)CC4)C3)[C@H](c3ccccc3C(C)C)C2)cn1` [Example 359, 2-((3-fluoro-6-methoxy-1H-pyrrolo[2,3-b]pyridin-5-yl)oxy)-N-((6-((((1r,4r)-4-hydroxy-4-methylcyclohexyl)methyl)amino)-5-nitropyridin-3-yl)sulfonyl)-4-(2-((R)-2-(2-isopropylphenyl)-4-((2-methoxypyrimidin-5-yl)methyl)piperazin-1-yl)-7-azaspiro[3.5]nonan-7-yl)benzamide] was tested, and the IC50 was 1 nM.
`COc1ncc(CN2CCN(C3CC4(CCN(c5ccc(C(=O)NS(=O)(=O)c6cnc(NC[C@H]7CC[C@](C)(O)CC7)c([N+](=O)[O-])c6)c(Oc6cnc7[nH]cc(F)c7c6)c5)CC4)C3)[C@H](c3ccccc3C(C)C)C2)cn1` [Example 360, 2-((3-fluoro-1H-pyrrolo[2,3-b]pyridin-5-yl)oxy)-N-((6-((((1r,4r)-4-hydroxy-4-methylcyclohexyl)methyl)amino)-5-nitropyridin-3-yl)sulfonyl)-4-(2-((R)-2-(2-isopropylphenyl)-4-((2-methoxypyrimidin-5-yl)methyl)piperazin-1-yl)-7-azaspiro[3.5]nonan-7-yl)benzamide] showed an IC50 of 1 nM.
